In publication PMC8422859, “A Novel Oral Arginase 1/2 Inhibitor Enhances the Antitumor Effect of PD-1 Inhibition in Murine Experimental Gliomas by Altering the Immunosuppressive Environment” (Frontiers in Oncology, 2021):

How the values were obtained:
[1] = test system: GL261 tdTomato+luc+ glioma; assay: GL261 intracranial glioma growth (tumor volume, bioluminescence); assay type: in vivo, mouse
Protocol: Mice were deeply anesthetized with isoflurane. After identifying the sagittal and coronal sutures on the right side, a hole was drilled at the following coordinates: 1 mm anterior and 1,5 mm lateral from bregma. GL261 tdTomato^+luc^+ glioma cells (80,000 in 1 μL of DMEM) were stereotactically injected with a Hamilton syringe to the right striatum of the mouse 3 mm deep from the surface of the brain. The skin incision was closed and mice were monitored until they completely recovered from anesthesia. Mice were randomly allocated to the study groups. The animals were weighed weekly and observed daily for clinical symptoms and evidence of toxicity by evaluating their eating, mobility, weight loss, hair loss, and hunched posture. OAT-1746 was administered by oral gavage at 50 mg/kg twice a day from day 1 after implantation. Anti-PD-1 antibody (Biolegend, GoInVivo™ Purified anti-mouse CD279) was injected intraperitoneally (i.p.) at a dose of 2.5 mg/kg on days 8, 10, 12, 14 post-implantation. Control groups received vehicle (saline) twice a day by gavage. Animals were euthanized when they lost more than 20% of body weight compared to day 0.
To monitor tumor growth, mice were injected i.p. with 150 mg/kg body weight luciferin (D-luciferin sodium salt BC218 Synchem) and left for 8 min. Then, the animals were anesthetized with 3% isoflurane and transferred to the X-treme Imaging System (Bruker, Germany). At 10 min after the D-luciferin injection, a photonic emission was imaged. Tumors were visualized at days 14, 21 and 28 after implantation and bioluminescent images were quantified as photon/sec/mm^2. […]
The animals were sacrificed on the day 21 after GL261 tdTomato^+luc^+ cell implantation and perfused with 4% paraformaldehyde in PBS. […] To quantify the tumor size, sections were stained with toluidine blue, and images were acquired using a Leica DM4000B microscope (Leica Microsystems, Wetzlar, Germany). Tumor areas were measured using ImageJ software (NIH, Bethesda, MD, USA) on every sixth brain slice, and tumor volumes were calculated as previously described ([26]).

[2] = test system: ARG1/2; design: method as in PMID 31278254; conditions: cited from earlier work
[3] = test system: BV2 microglial cells; assay: MTT viability assay, BV2; assay type: cell-based, mouse; conditions: 24 h, concentrations up to 1000 µM
Protocol: Cell viability was assessed using MTT metabolism assay (U87 and BV2 cells) or MTS CellTiter 96® AQueous One Solution Cell Proliferation Assay (Promega) for the primary murine microglia cultures. Cells were cultured either in 96-well plates (U87 at density of 1×10^4) or 24-well plates (BV2 at density of 4×10^4 and primary microglia 8×10^4) with the indicated concentrations of the inhibitor or H2O (vehicle) for 24 h. MTT solution (Sigma Aldrich) was added to each well to a final concentration of 0.5 mg/mL. After 1 h of incubation at 37°C, water-insoluble dark blue formazan crystals were dissolved in DMSO. Optical densities (OD) were measured at 570 and 620 nm using a scanning multiwell spectrophotometer. The MTT assay was performed according to the manufacturer’s protocol. All measurements were carried out on three independent cell passages, in triplicates.

CN(C)C[C@@H]1CC[C@@H](CCB(O)O)C[C@]1(N)C(=O)O [OAT-1746]
animals that developed tumors at day 14 ([1]; bioluminescence, day 14): 5 out of 8
tumor growth (tumor volume on brain sections) ([1]; day 21, OAT-1746 50 mg/kg oral twice a day, anti-PD-1 2.5 mg/kg i.p. days 8, 10, 12, 14): did not reduce the tumor growth
glioma growth (bioluminescence imaging) ([1]; days 14, 21, 28 post-implantation): did not show any effect on the tumor volume
inhibition of ARG1/2 [2]: low nanomolar concentrations
viability of BV2 microglial cells (toxicity) [3]: not toxic
